From US7714140B2, “1,2 Benzoisothiazole derivative, and agricultural or horticultural plant disease- controlling agent” (Kumiai Chemical Industry, Co. Ltd., priority 2006, dated 2010)

Assays:
Pyricularia oryzae = format: in vivo; settings: paddy rice (Aichi Asahi), root treatment with wettable powder, active ingredient 30 g per 10 ares; inoculated 26 days after treatment; lesions counted 8 days after inoculation
[1] = test system: Colletotrichum orbiculare; experiment: Test for preventive effect for cucumber anthracnose; settings: cucumber (Sagamihanjiro), soil drench 10 ml, inoculated 7 days later, lesions counted 7 days after
Method: Four cucumber seeds (variety: Sagamihanjiro) were sowed in a plastic cup of 5.5 cm in diameter, at a depth of 2 cm, and were grown in a greenhouse for 7 days. […] 10 ml of the dilution was poured into the soil at the root of young cucumber seedlings having cotyledons. 7 days later, a conidia suspension (10^5 to 10^6/ml) of Colletotrichum orbiculare which had been cultured in a PDA plate medium, was uniformly inoculated to the cucumber plant by hand spraying. The cup was allowed to stand in a moist chamber of 25° C. for 24 hours. Then, the cup was allowed to stand on a basin in a glass greenhouse and, 7 day later, the number of lesions of all cotyledons in pot was examined. A protective value was calculated from the expression 1 and evaluated according to the standard of Table 2.
Using a comparative compound shown below, a wettable powder was prepared according to Example 5. A control number thereof was calculated in the same manner as in the above Test Example.

[2] = concentration of active ingredient 1 ppm
[3] = concentration of active ingredient 10 ppm

Row | SMILES | Evaluation (protective value) (Pyricularia oryzae) | melting point | Evaluation (protective value) [1, 2] | Evaluation (protective value) [1, 3]
1 | C=CCOC1=NS(=O)(=O)c2ccccc21 [Probenazole, reference compound] | C (protective value: less than 80.0% to 50.0% or more) |  |  | 
2 | Cc1cc(COC2=NS(=O)(=O)c3ccccc32)sn1 [compound 5, 3-(3-methylisothiazol-5-ylmethoxy)-1,2-benzoisothiazole 1,1-dioxide] | B (protective value: less than 90.0% to 80.0% or more) | 202 to 204 °C | D (protective value: less than 50.0%) | A (protective value: 100% to 90.0% or more)
3 | O=S1(=O)N=C(OCc2ccncc2)c2ccccc21 [Comparative compound 1, reference compound] | C (protective value: less than 80.0% to 50.0% or more) |  | D (protective value: less than 50.0%) | B (protective value: less than 90.0% to 80.0% or more)
4 | O=S1(=O)N=C(OCc2snc(Cl)c2Cl)c2ccccc21 [Compound No. 1, 3-(3,4-dichloroisothiazol-5-ylmethoxy)-1,2-benzoisothiazole 1,1-dioxide] | B (protective value: less than 90.0% to 80.0% or more) |  | A (protective value: 100% to 90.0% or more) | A (protective value: 100% to 90.0% or more)
